# Assays:
# 3T3-L1 adipocytes [1] = assay: Calcium flux measurement (FluoForte); format: cell-based, Murine
# Method: 3T3-L1 cells were cultured and differentiated in black wall/clear bottom 96-well plates (Corning). At day seven post-induction, cells were starved overnight in DMEM containing 1 % BSA and loaded with the calcium dye FluoForte AM (Enzo Lifescience) according to the instructions provided by the manufacturer. Intracellular calcium levels were measured using a Synergy 4 microplate reader (BioTeK). […] Baselines for each well were acquired before injection and subtracted afterwards. Ionomycin and EGTA were injected in concentrations of 1 µM.
# 3T3-L1 adipocytes [2] = format: cell-based, Murine
# Method: Murine 3T3-L1 preadipocytes (ATCC) were maintained in DMEM containing 10% heat inactivated calf serum (CS) at 37°C and 5% CO2. Two days post-confluence, adipocyte differentiation was induced by treating cells with 0.25 mM 3-Isobutyl-1-methylxanthine (IBMX), 1 µM dexamethasone, 1.74 µM insulin and 5 µM Troglitazone in DMEM containing 10% fetal bovine serum (FBS). After 48 hours, the medium was replaced with DMEM supplemented with 10% FBS, insulin and Troglitazone alone. After an additional 48 hours, cells were switched to DMEM with 10% FBS for the rest of the differentiation process and the medium was changed every other day. Seven days post-induction, differentiated 3T3-L1 1 adipocytes were starved overnight in DMEM containing 1 % Bovine Serum Albumin (BSA) before starting different treatments as indicated in the text.
# Differentiated 3T3-L1 adipocytes were starved overnight in DMEM containing 1 % BSA and treated as indicated. NAD^+, NADP^+, NADH, and NADPH were determined using the Enzychrom NAD^+/NADH and the Enzychrom NADP^+/NADPH assay kit, respectively (BioAssay Systems) according to manufacturer's instructions. To measure glucose consumption and lactate production, the Glucose RTU and Lactate RTU kits (Biomerieux) were used according to manufacturer's instruction and normalized to cell number. AMP, ADP and ATP were determined as previously described^51. In brief, cells were washed once with ice cold PBS and proteins were precipitated with 1 % trichloroacetic acid (TCA). Repeated ether washes were used to remove TCA from the aqueous extract phase. Extracts were dried and stored at -80°C until further processing. To determine nucleotide phosphates by reversed-phase HPLC cell extracts were lyophilized for 3 days at -20 °C. Dried samples were dissolved in mobile phase A (60 mM K2HP04 and 40 mM KH2P04, adjusted to pH 7 with 0.1 M KOH). 20 µL were injected into an Agilent 1200 HPLC system (Agilent) and nucleotides were separated by gradient elution from an Agilent Eclipse XDB-C18 4.6 x 150 mm column at a flow rate of 1 mL/min. The gradient was 99% phase A from 0-5 minutes, 99% phase A to 40% A from 5-20 minutes and 99% phase A from 20-32.5 minutes. 100% acetonitrile served as mobile phase B. Eluting nucleotides were monitored on a UV detector at 254 nm. ATP, ADP and AMP standards were used to generate calibration curves for peak quantifications.
# C57BL/6J mice [3] = assay: Glycemic-insulinemic clamp with somatostatin infusion; format: in vivo
# Method: Indwelling catheters were placed into the left femoral vein and externalised in the interscapular region of 11 week old C57BL/6J mice^17,52. The animals were allowed to recover for 5 days and fasted for 16 hours before the experiment. Somatostatin (SST14 Bachem, Switzerland) was infused at a rate of 1 µg/kg/min and hyperglycemia (12.5 mM) was maintained by variable infusion of 10% glucose. Steady state was maintained for 90 min before cyclopamine injection (2/3 bolus 1/3 infusion; low dose = 1 mg/kg, high-dose = 10 mg/kg), or HBS (Control). Whole blood was sampled from the tail every 10 min during the last hour using a glucometer (AccuCheck Aviva; Roche Diagnostics, Meylan, France).
# AMPK = assay: AMPKAR FRET assay of AMPK activity; format: cell-based, Human; conditions: cyclopamine, HEK293 with AMPK-AR reporter
# Method: HEK293 cells (ATCC) were grown in DMEM containing 10% FBS. 2 x 10^6 cells were seeded in 10 cm dishes and transfected using the GeneJuice Reagent (Merck) according to manufacturer's instructions. 48 hours after transfection, cells were resuspended in PBS and used for FRET assays.
# HEK293 cells transfected with the AMPK-AR construct^40 were resuspended in PBS at a concentration of 10^5 cells/ml. A Synergy 4 microplate reader (BioTeK) was used for measuring FRET signals. In brief, compounds were pipetted into a 96-well plate at the concentrations indicated in the text. Cell suspensions were pre-loaded in the reader to be injected at 10^4 cells/well. The FRET signal was detected using 420/50 nm and 528/20 nm as excitation and emission settings. Baseline values for each well were acquired before injection and subtracted afterwards.
# Smoothened = conditions: cyclopamine 100 nM against standard 200 nM SAG; cited from earlier work
# [4] = system: STZ-treated C57BL/6J mice; assay: Cyclopamine tolerance test in STZ-treated mice; format: in vivo
# Method: (§1) C57BL/6J mice were maintained on a standard rodent chow diet and a 12 hour light: 12 hour dark cycle. Eight week old, over-night fasted C57BL/6J male mice were injected intraperitoneally (i.p.) with vehicle (45% hydroxypropyl-β-cyclodextrin; HBS) or cyclopamine (10 mg/kg). Fifteen minutes after injection, an oral glucose tolerance test (OGTT) was performed by administering 2 g/kg glucose by oral gavage. Tail-vein blood was collected to measure glucose and insulin levels. Insulin was measured using the ultrasensitive insulin ELISA Kit from Mercodia, according to the manufacturer's recommendations. For cyclopamine tolerance tests eight week old C57BL/6J mice were i.p. injected with streptozotocin (STZ, 200 mg/kg body weight) to destroy pancreatic beta-cells. 72 hours later STZ-treated mice were separated into two groups and injected i.p. with either vehicle or 10 mg/kg cyclopamine. All animal experiments were carried out according to an ethical animal license protocol in accordance to the animal protection law and approved by the Regierungspräsidium Freiburg (Tierversuchsvorhaben Registrier-Nr.: G-10/94).
# C57BL/6J mice [5] = assay: Oral glucose tolerance test (OGTT); format: in vivo
# Method: as §1
smiles,measurement,setting,value
O=C(O)CN(CCOCCOCCN(CC(=O)O)CC(=O)O)CC(=O)O [EGTA],effect on cyclopamine-induced Ca++ response,3T3-L1 adipocytes [1]; EGTA 1 µM,sensitive to extracellular EGTA
same,effect on SAG- and Shh-induced Ca++ responses,"3T3-L1 adipocytes [1]; EGTA 1 µM, extracellular calcium chelator",completely abrogated the SAG-and Shh-induced responses
c1cc(-c2cnn3cc(-c4ccc(OCCN5CCCCC5)cc4)cnc23)ccn1 [compound C],"effect on SAG-induced metabolic rewiring (glucose uptake, lactate production, redox balance)","3T3-L1 adipocytes [2]; SAG 200 nM, compound C 10 µM, nifedipine 20 µM, Ptx 100 ng/ml",abrogated all detectable metabolic rewiring effects following SAG stimulation
same,"effect on cyclopamine-dependent glucose uptake, lactate production and redox rebalancing","3T3-L1 adipocytes [2]; cyclopamine 100 nM, compound C 10 µM, nifedipine 20 µM, Ptx 100 ng/ml",efficiently counteracted
"CC1=C2C[C@H]3[C@@H](CC=C4C[C@@H](O)CC[C@@]43C)[C@@H]2CC[C@]12O[C@@H]1C[C@H](C)CN[C@H]1[C@H]2C [cyclopamine, 11-deoxojervine]",tissue-specific glucose uptake (glucose tracing),"C57BL/6J mice [3]; LD 1 mg/kg, HD 10 mg/kg, EDL, Soleus, VL",increased glucose-uptake into muscle
same,time to increase in glucose infusion rate,C57BL/6J mice [3]; after cyclopamine infusion,10 to 20 min
same,glucose infusion rate,"C57BL/6J mice [3]; low dose 1 mg/kg, high dose 10 mg/kg, somatostatin infusion",robust dose-dependent increases in glucose infusion rate
same,Ca++ response,3T3-L1 adipocytes [1]; cyclopamine,rapid and robust Ca^++ response
same,Ampk sensitive FRET signal,AMPK,significant Ampk sensitive FRET signal
same,displacing SAG and blocking canonical signalling,Smoothened,incapable of displacing standard 200 nM SAG and blocking canonical signalling
same,glucose clearance,"[4]; 10 mg/kg i.p., insulin-deficient mice",significant and robust glucose clearance
same,time to glucose clearance,"[4]; after cyclopamine injection, 10 mg/kg",~30 min
same,glucose tolerance,"C57BL/6J mice [5]; 10 mg/kg i.p. 15 minutes prior to testing, 2 g/kg oral glucose",moderate but significant improvement in glucose tolerance
same,basal and glucose-stimulated insulin secretion,C57BL/6J mice [5]; 10 mg/kg i.p. pre-treatment,Neither basal nor glucose-stimulated insulin secretion appeared affected
same,NAD+/NADH ratio,3T3-L1 adipocytes [2]; cyclopamine 100 nM,augmentation of the NAD^+/NADH ratio
same,generation of lactate,3T3-L1 adipocytes [2]; cyclopamine 100 nM,generation of lactate
same,glucose uptake,3T3-L1 adipocytes [2]; cyclopamine 100 nM,marked glucose uptake

# Source: patent publication EP2620142A1, “Hedgehog signaling pathway involved in energy metabolism” (Max-Planck-Gesellschaft zur Förderung der Wissenschaften …, priority 2012, dated 2013)
